Data: BindingDB's records for patent US20240189287 (Bionanosim (Bns, 2024)
pKi: −log10 of the molar value.

Biological target: Cannabinoid receptor 1 (Mus musculus, UniProt P47746)
Experiment: CB1 receptor binding assay
Description: Mouse brain membranes were used as the source material for CB1 receptors. […] Briefly.

Chain of Cannabinoid receptor 1 (P47746 whole entry): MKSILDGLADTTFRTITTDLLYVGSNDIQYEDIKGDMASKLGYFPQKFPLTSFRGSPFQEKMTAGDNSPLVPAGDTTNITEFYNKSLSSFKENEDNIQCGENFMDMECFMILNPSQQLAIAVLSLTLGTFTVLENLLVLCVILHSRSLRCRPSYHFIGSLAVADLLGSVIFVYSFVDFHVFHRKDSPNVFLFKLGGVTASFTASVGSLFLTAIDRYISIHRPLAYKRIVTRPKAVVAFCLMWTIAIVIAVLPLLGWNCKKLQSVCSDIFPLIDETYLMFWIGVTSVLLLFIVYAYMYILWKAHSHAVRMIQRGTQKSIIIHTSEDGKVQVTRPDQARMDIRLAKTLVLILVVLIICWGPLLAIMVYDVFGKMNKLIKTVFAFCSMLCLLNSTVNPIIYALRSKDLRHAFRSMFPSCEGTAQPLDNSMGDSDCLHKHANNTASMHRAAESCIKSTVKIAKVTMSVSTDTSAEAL

O=S(=O)(NC1CCCOc2c1nn(-c1ccccc1Cl)c2-c1ccc(Cl)cc1)c1ccc(Cl)cc1 (stereo unspecified) [US20240189287, Compound BNS808] was tested. Which pKi did it give?
The pKi was 9.22.
